# Data: PubChem BioAssay AID1033 (Sanford-Burnham Center for Chemical Genomics, 2008)
# Calls of active or inactive are those of the source. No rule for the calls is given here.
# Biological target: Chaperone protein DnaK (Escherichia coli (strain K12)) (UniProt P0A6Y8)
# Test: E. coli DnaK SBD ligand binding – biophysical, NMR, chaperone (AID 1033)
# Details: Purified DnaK SBD
# Chain of Chaperone protein DnaK (Escherichia coli (strain K12)) (P0A6Y8 whole entry, looked up): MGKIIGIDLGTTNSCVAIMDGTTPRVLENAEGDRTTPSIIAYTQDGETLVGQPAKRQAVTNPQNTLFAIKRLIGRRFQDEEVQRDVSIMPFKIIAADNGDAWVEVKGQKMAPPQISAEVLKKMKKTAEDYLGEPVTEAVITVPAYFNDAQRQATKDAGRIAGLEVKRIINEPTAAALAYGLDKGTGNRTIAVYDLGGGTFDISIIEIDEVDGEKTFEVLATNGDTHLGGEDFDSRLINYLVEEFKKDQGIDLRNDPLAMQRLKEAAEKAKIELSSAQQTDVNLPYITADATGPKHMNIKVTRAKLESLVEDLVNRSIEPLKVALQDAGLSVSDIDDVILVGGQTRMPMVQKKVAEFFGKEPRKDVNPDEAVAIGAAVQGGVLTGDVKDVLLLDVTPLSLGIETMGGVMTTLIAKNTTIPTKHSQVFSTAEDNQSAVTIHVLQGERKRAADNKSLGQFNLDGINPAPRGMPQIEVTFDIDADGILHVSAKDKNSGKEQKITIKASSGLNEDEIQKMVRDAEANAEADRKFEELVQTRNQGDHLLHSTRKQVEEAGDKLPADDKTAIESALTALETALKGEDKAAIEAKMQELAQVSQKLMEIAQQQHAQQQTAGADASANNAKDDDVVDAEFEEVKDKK
row,Compound,Kd
1,O/N=C1/CCCc2nonc21,> 4 mM (inactive)
2,CSc1nnc2c(n1)OC=Nc1ccccc1-2,> 4 mM (inactive)
3,C[C@@H]1[C@H]2[C@H](O[C@@H]3O[C@H](CO)[C@@H](O)[C@H](O)[C@H]3O)OC=C(C(=O)O)[C@H]2C[C@@H]1O,> 4 mM (inactive)
4,CN1CCCn2c1nc1c2c(=O)[nH]c(=O)n1C,> 4 mM (inactive)
5,C=C1C2CC[C@@]3(C)[C@H](c4ccoc4)OC(=O)C[C@]13O[C@H]1CC(O)C(C)(C)C(CC(=O)OC)[C@@]21C (some centres not stated),> 4 mM (inactive)
6,O=C(O)C1=C[C@@H](O)[C@@H](O)[C@H](O)C1,> 4 mM (inactive)
7,C[N+](C)(C)CC(=O)[O-],> 4 mM (inactive)
8,CC(=O)NC1(NC(C)=O)CCN(C)CC1,> 4 mM (inactive)
9,O=c1cc(CO)oc(CN2CCCCC2)c1O,> 4 mM (inactive)
10,CC1CCN(C(=O)c2ccc3c(c2)OCCO3)CC1,> 4 mM (inactive)
11,CC(=O)OC(C)(C)[C@@H]1Cc2cc3ccc(=O)oc3cc2O1,> 4 mM (inactive)
12,COc1cc(NC(=O)c2ccccc2)c(C)cc1N,> 4 mM (inactive)
13,Brc1ccc(-c2nc(-c3ccncc3)no2)o1,> 4 mM (inactive)
14,Cc1ccc(C(=O)Nn2cnnc2)s1,> 4 mM (inactive)
15,CC(C)=CCC/C(C)=C/CC/C(C)=C/CC/C(C)=C/CC/C(C)=C/CC/C(C)=C/CC/C(C)=C/CC/C(C)=C/CC/C(C)=C/CO,> 4 mM (inactive)
16,CC(N)C(=O)c1ccco1 (configuration not stated),> 4 mM (inactive)
17,Nc1cncc(C(=O)O)c1,> 4 mM (inactive)
18,Cc1nn2c(-c3ccco3)nnc2c2ccccc12,> 4 mM (inactive)
19,O=C(Nc1c[nH]c(=O)[nH]c1=O)c1cccs1,> 4 mM (inactive)
20,CC(=O)NC1=NN(c2ccccc2)C(=O)C1,> 4 mM (inactive)
21,C/C=C(\C)c1nnc(NC(=O)C(C)C)s1,> 4 mM (inactive)

row,Compound,Kd
1,Cc1cccc(N2C(=O)CC(=O)NC2=O)c1,> 4 mM (inactive)
2,CN1CCN(C(=O)C2CCCNC2)CC1 (configuration not stated),> 4 mM (inactive)
3,COc1ccc(-c2noc(-c3ccco3)n2)cc1OC,> 4 mM (inactive)
4,Cn1c(SCC(=O)NCCO)nc2ccccc2c1=O,> 4 mM (inactive)
5,Cc1ccc(C(=O)N2CCC(C(N)=O)CC2)c(Cl)c1,> 4 mM (inactive)
6,C[C@H]1[C@H]2CCC3C4CC=C5C[C@@H](N(C)C)CC[C@]5(C)C4CC[C@@]32CN1C (some centres not stated),> 4 mM (inactive)
7,O=C1COc2ccc(C(=O)c3ccccc3)cc2CN1,> 4 mM (inactive)
8,COc1ccccc1NC(=O)c1cc[n+]([O-])cc1,> 4 mM (inactive)
9,C=C1C(=O)O[C@@H]2C3OC3(C)CC/C=C(\C)CC[C@@H]12 (some centres not stated),> 4 mM (inactive)
10,COc1cc(OC)c2ccc(=O)oc2c1,> 4 mM (inactive)
11,COC1=CC(=O)C=C(OC)C1=O,> 4 mM (inactive)
12,NC(=O)C1CCN(C(=O)c2ccccc2F)CC1,> 4 mM (inactive)
13,C=C1CCC2C(CC2(C)C)C(=C)CC/C1=N/O (configuration not stated),> 4 mM (inactive)
14,CNC(=O)c1ccccc1N,> 4 mM (inactive)
15,c1ccc(CCN2CCN(CCc3ccccn3)CC2)nc1,> 4 mM (inactive)
16,C/C=C(\C)C(=O)OC1[C@@H]2C=C3C(CC[C@]4(C)C3CC(=O)O[C@H]4c3ccoc3)C(C)(C2=O)[C@@H](C(O)C(=O)OC)C1(C)C (some centres not stated),> 4 mM (inactive)
17,O=C1CNC(=O)N1c1cccc(Cl)c1,> 4 mM (inactive)
18,COc1ccccc1NC(=O)c1snnc1C,> 4 mM (inactive)
19,O=C(NCCO)c1cc2ccccc2cc1O,> 4 mM (inactive)
20,COc1cc(C(C)=O)ccc1OCC(O)Cn1ccnc1 (configuration not stated),> 4 mM (inactive)
21,CC(=O)CC1(O)C(=O)Nc2ccc(Br)cc21 (configuration not stated),> 4 mM (inactive)

row,Compound,Kd
1,CC(C1OC(C)(C)C(O)C1O)[C@@H]1CC[C@]2(C)C3=CCC4C(C)(C)C(=O)CC[C@]4(C)C3CC[C@@]12C (some centres not stated),> 4 mM (inactive)
2,Cc1ccc(-n2[nH]c(C)cc2=O)cc1,> 4 mM (inactive)
3,Cn1nc(C(=O)Nc2cccnc2)c2ccccc2c1=O,> 4 mM (inactive)
4,C[C@H]1C[C@@H](O)[C@]2(O)[C@@]13CC(=O)OC[C@@]2(C)[C@](C)(O)C(=O)C3,> 4 mM (inactive)
5,O=C1CCC(=O)N1CNc1ccccc1,> 4 mM (inactive)
6,CC(=O)Nc1cccc(-c2nc3ccccc3c(=O)o2)c1,> 4 mM (inactive)
7,O=C(NN=C1CCCC1)c1ccncc1,> 4 mM (inactive)
8,O=c1[nH]cc(S(=O)(=O)N2CCc3ccccc32)c(=O)[nH]1,> 4 mM (inactive)
9,CSc1ccc(/C=c2\sc3ncnn3c2=O)cc1,> 4 mM (inactive)
10,Nc1cccc(NC(=O)c2cccs2)c1,> 4 mM (inactive)
11,C=C(C)C1CC=C(CO)CC1 (configuration not stated),> 4 mM (inactive)
12,Cc1sc2nc[nH]c(=S)c2c1C,> 4 mM (inactive)
13,Cc1[nH]c2ccccc2c(=O)c1CO,> 4 mM (inactive)
14,Nc1cc(=O)[nH]c(=S)n1-c1cccc(C(F)(F)F)c1,> 4 mM (inactive)
15,CCOC(=O)Cc1nc2ccccc2[nH]1,> 4 mM (inactive)
16,O=c1ccc2ccc(O)cc2o1,> 4 mM (inactive)
17,CC(=O)Nc1nnc(-c2ccco2)o1,> 4 mM (inactive)
18,COC(=O)c1[nH]c2ccccc2c1C(=O)OC,> 4 mM (inactive)
19,OC(c1ccccc1)c1ccccn1 (configuration not stated),> 4 mM (inactive)
20,O=C(Nc1ccc2ccccc2c1)c1cnccn1,> 4 mM (inactive)
21,COCc1nn2c(N)c(C#N)cnc2c1-c1ccccc1,> 4 mM (inactive)

row,Compound,Kd
1,O=C(NCc1ccccc1Cl)c1cnn2cccnc12,> 4 mM (inactive)
2,NC(=O)c1cc2c(n(-c3ccccc3)c1=O)CCCC2=O,> 4 mM (inactive)
3,Nc1cc(=O)[nH]c(SCC(=O)NCc2ccccc2)n1,> 4 mM (inactive)
4,O=C1CSC(=O)N1c1cccc(O)c1,> 4 mM (inactive)
5,C[C@@H]1CC[C@@]2(OC1)OC1CC3C4CC=C5C[C@@H](O)CC[C@]5(C)C4CC[C@]3(C)C1[C@@H]2C (some centres not stated),> 4 mM (inactive)
6,Cc1c(C)n2c(SCC(N)=O)nnc2[nH]c1=O,> 4 mM (inactive)
7,COC(=O)C(O)[C@@H]1C2(C)C(=O)[C@@H](CC3=C4CC(=O)O[C@@H](c5ccoc5)[C@]4(C)CCC32)[C@H](OC(C)=O)C1(C)C (some centres not stated),> 4 mM (inactive)
8,Cn1cc(C(=O)N/N=C/c2ccccc2)ccc1=O,> 4 mM (inactive)
9,Cc1c(C(=O)Nn2cnnc2)oc2ccccc12,> 4 mM (inactive)
10,O=C(NC(=S)NC1CCSC1=O)c1ccco1 (configuration not stated),> 4 mM (inactive)
11,Cc1ccc(C(=O)n2cnnc2N)cc1C,> 4 mM (inactive)
12,COc1ccc2c(c1)OCC(Cc1ccc(OC)c(OC(C)=O)c1)C2=O (configuration not stated),> 4 mM (inactive)
13,COc1ccccc1-c1nc(=S)[nH][nH]1,> 4 mM (inactive)
14,NC(=O)c1cccc2c1OCCO2,> 4 mM (inactive)
15,O=C(Nc1ccc(F)cc1F)c1ccco1,> 4 mM (inactive)
16,O=C1c2ccncc2C(=O)N1CNc1ccccn1,> 4 mM (inactive)
17,COC(=O)c1ccc2snnc2c1,> 4 mM (inactive)
18,CS(=O)(=O)N1CCC(C(=O)NC2CCCC2)CC1,> 4 mM (inactive)
19,Oc1cc2c(cc1O)C1c3ccc(O)c(O)c3OCC1(O)C2 (configuration not stated),> 4 mM (inactive)
